The supplement of paper PMC11061612

Experiments:
[1] = system: HO-1-N-1 (Oral Cavity Carcinoma); assay: Bliss excess, mean over the matrix (fraction); higher = more synergy
Procedure, shortened: (§1)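 After 24 hours at 37°C and 5% CO2 in 1536-well plates, cells in DMEM/F12 or RPMI plus 10% FBS received two-drug dose matrices for 72 hours. Viability came from CellTiter-Glo 2.0 luminescence and was scaled as inhibition, anchored at 0 by vehicle wells and at 1 by blank wells. Combination Emax is taken as the second-highest inhibition in the matrix, and Bliss excess as the observed combination effect less EA + EB − EA·EB, with EA and EB the single-agent effects.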

[2] = system: HT-1376 (Bladder Carcinoma); assay: as above
Procedure, shortened: as §1

KELLY (Neuroblastoma) = assay: as above
Procedure, shortened: as §1

[3] = system: KURAMOCHI (Ovarian Carcinoma); assay: as above
Procedure, shortened: as §1

[4] = system: CAL-148 (Breast Carcinoma); assay: combination Emax (second highest fraction inhibited in the dose matrix, 72 h); higher = more inhibition; extreme values may be limits of the assay
Procedure, shortened: as §1

[5] = system: Calu-3 (Lung Adenocarcinoma); assay: as above
Procedure, shortened: as §1

[6] = system: HCC-78 (Lung Adenocarcinoma); assay: as above
Procedure, shortened: as §1

[7] = system: HO-1-N-1 (Oral Cavity Carcinoma); assay: as above
Procedure, shortened: as §1

[8] = system: HT-1376 (Bladder Carcinoma); assay: as above
Procedure, shortened: as §1

[9] = system: Hs-578-T (Breast Carcinoma); assay: as above
Procedure, shortened: as §1

[10] = system: KURAMOCHI (Ovarian Carcinoma); assay: as above
Procedure, shortened: as §1

[11] = system: LS-180 (Colorectal Carcinoma); assay: as above
Procedure, shortened: as §1

[12] = system: ME-1 (Acute Myeloid Leukemia); assay: as above
Procedure, shortened: as §1

NB10 (Neuroblastoma) = assay: as above
Procedure, shortened: as §1

[13] = system: NCI-H2085 (Non-Small Cell Lung Carcinoma); assay: as above
Procedure, shortened: as §1

[14] = system: NCI-H82 (Small Cell Lung Carcinoma); assay: as above
Procedure, shortened: as §1

[15] = system: Ramos-2G6-4C10 (Burkitt's Lymphoma); assay: as above
Procedure, shortened: as §1

T98G (Glioblastoma) = assay: as above
Procedure, shortened: as §1

[16] = system: TE-15 (Esophageal Squamous Cell Carcinoma); assay: as above
Procedure, shortened: as §1

[17] = system: UM-UC-3 (Bladder Carcinoma); assay: as above
Procedure, shortened: as §1
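Wherever Bliss excess, mean over the matrix is given: after 72 h of two-drug dosing.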

SMILES	Bliss excess [1]	Bliss excess [2]	Bliss excess (KELLY (Neuroblastoma))	Bliss excess [3]	combination Emax [4]	combination Emax [5]	combination Emax [6]	combination Emax [7]	combination Emax [8]	combination Emax [9]	combination Emax [10]	combination Emax [11]	combination Emax [12]	combination Emax (NB10 (Neuroblastoma))	combination Emax [13]	combination Emax [14]	combination Emax [15]	combination Emax (T98G (Glioblastoma))	combination Emax [16]	combination Emax [17]
C=CCn1c(=O)c2cnc(Nc3ccc(N4CCN(C)CC4)cc3)nc2n1-c1cccc(C(C)(C)O)n1 [AZD1775] + CCc1c2c(nc3ccc(O)cc13)-c1cc3c(c(=O)n1C2)COC(=O)[C@]3(O)CC [SN-38] (first compound max 1 µM, partner max 0.3 µM)	-0.0092	-0.0194	-0.0534	-0.0053	0.974	0.786	0.954	0.978	0.342	0.855	0.944	0.806	0.597	0.853	0.523	0.965	1	0.95	0.939	0.954
C=CCn1c(=O)c2cnc(Nc3ccc(N4CCN(C)CC4)cc3)nc2n1-c1cccc(C(C)(C)O)n1 [AZD1775] + Nc1ccn([C@@H]2O[C@H](CO)[C@@H](O)C2(F)F)c(=O)n1 [Gemcitabine] (first compound max 1 µM, partner max 0.3 µM)	0.0188	-0.0432	0.0306	0.0284	0.989	0.636	0.851	0.993	0.428	0.724	0.699	0.754	0.526	0.933	0.725	0.923	1	0.781	0.944	0.918
CN(CCO)CC[C@H](CSc1ccccc1)Nc1ccc(S(=O)(=O)NC(=O)c2ccc(N3CCC([C@@H](O)c4ccccc4-c4ccc(Cl)cc4)CC3)cc2)cc1S(=O)(=O)C(F)(F)F [AZD4320] + CC(=O)O[C@H]1C(=O)[C@@]2(C)[C@H]([C@H](OC(=O)c3ccccc3)[C@]3(O)C[C@H](OC(=O)[C@H](O)[C@@H](NC(=O)c4ccccc4)c4ccccc4)C(C)=C1C3(C)C)[C@]1(OC(C)=O)CO[C@@H]1C[C@@H]2O [Paclitaxel] (first compound max 1 µM, 7x7, partner max 3 µM)	0.0178	0.0857	-0.0068	0.0929	1	0.76	0.803	1	0.775	1	0.707	0.94	1	0.912	0.97	0.941	0.872	0.993	0.992	0.966
CN(CCO)CC[C@H](CSc1ccccc1)Nc1ccc(S(=O)(=O)NC(=O)c2ccc(N3CCC([C@@H](O)c4ccccc4-c4ccc(Cl)cc4)CC3)cc2)cc1S(=O)(=O)C(F)(F)F [AZD4320] + CS(=O)(=O)CCNCc1ccc(-c2ccc3ncnc(Nc4ccc(OCc5cccc(F)c5)c(Cl)c4)c3c2)o1 [Lapatinib] (first compound max 1 µM, 7x7, partner max 10 µM)	0.0439	0.0125	0.0272	0.0392	0.94	0.989	0.238	0.97	0.508	0.99	0.939	0.505	1	0.705	0.807	0.69	0.961	0.741	0.761	0.392
CN(CCO)CC[C@H](CSc1ccccc1)Nc1ccc(S(=O)(=O)NC(=O)c2ccc(N3CCC([C@@H](O)c4ccccc4-c4ccc(Cl)cc4)CC3)cc2)cc1S(=O)(=O)C(F)(F)F [AZD4320] + Nc1ccn([C@@H]2O[C@H](CO)[C@@H](O)C2(F)F)c(=O)n1 [Gemcitabine] (first compound max 1 µM, 7x7, partner max 0.3 µM)	-0.0049	-0.0644	0.0014	0.0216	0.974	0.624	0.852	1	0.236	0.876	0.559	0.66	1	0.858	0.562	0.807	0.554	0.861	0.994	0.979
Cc1c2c(nn1C)CSCc1cc(n(C)n1)CSc1cc(c3ccccc3c1)OCCCc1c(C(=O)O)n(C)c3c-2c(Cl)ccc13 [AZD5991] + CC(=O)O[C@H]1C(=O)[C@@]2(C)[C@H]([C@H](OC(=O)c3ccccc3)[C@]3(O)C[C@H](OC(=O)[C@H](O)[C@@H](NC(=O)c4ccccc4)c4ccccc4)C(C)=C1C3(C)C)[C@]1(OC(C)=O)CO[C@@H]1C[C@@H]2O [Paclitaxel] (first compound max 1 µM, 7x7, partner max 3 µM)	0.0062	-0.0424	0.0544	0.0479	0.81	0.346	0.433	1	0.0587	0.988	0.539	0.822	0.715	0.915	0.743	0.997	1	0.883	0.998	0.745
Cc1c2c(nn1C)CSCc1cc(n(C)n1)CSc1cc(c3ccccc3c1)OCCCc1c(C(=O)O)n(C)c3c-2c(Cl)ccc13 [AZD5991] + CS(=O)(=O)CCNCc1ccc(-c2ccc3ncnc(Nc4ccc(OCc5cccc(F)c5)c(Cl)c4)c3c2)o1 [Lapatinib] (first compound max 1 µM, 7x7, partner max 10 µM)	0.0972	-0.0102	0.0879	-0.012	0.492	0.895	0.173	0.962	0.33	0.833	0.674	0.482	0.646	0.177	0.47	0.963	0.996	0.412	0.764	0.169
Cc1c2c(nn1C)CSCc1cc(n(C)n1)CSc1cc(c3ccccc3c1)OCCCc1c(C(=O)O)n(C)c3c-2c(Cl)ccc13 [AZD5991] + Nc1ccn([C@@H]2O[C@H](CO)[C@@H](O)C2(F)F)c(=O)n1 [Gemcitabine] (first compound max 1 µM, 7x7, partner max 0.3 µM)	-0.0071	-0.03	-0.0253	0.0117	0.929	0.534	0.787	0.994	0.215	0.663	0.491	0.779	0.676	0.778	0.203	0.972	0.994	0.5	0.931	0.832
C[C@@H]1COCCN1c1cc(C2([S@](C)(=N)=O)CC2)nc(-c2ccnc3[nH]ccc23)n1 [AZD6738] + C1CC(C1)(C(=O)[O-])C(=O)[O-].N.N.[Pt+2] [Carboplatin] (first compound max 10 µM, 7x7, partner max 10 µM)	0.0156	-0.039	-0.0516	0.0222	0.818	0.555	0.662	0.779	0.454	0.69	0.636	0.7	0.348	0.689	0.381	0.823	0.88	0.886	0.857	0.398
Cc1cc2ncnn2cc1Nc1ncc2c(n1)n(C1CCOCC1)c(=O)n2C [AZD7648] + COc1cc([C@@H]2c3cc4c(cc3[C@@H](O[C@@H]3O[C@@H]5CO[C@@H](C)O[C@H]5[C@H](O)[C@H]3O)[C@H]3COC(=O)[C@H]23)OCO4)cc(OC)c1O [Etoposide] (first compound max 10 µM, 7x7, partner max 10 µM)	0.23	-0.0021	0.0734	0.0716	1	0.744	0.774	0.987	0.515	0.662	0.474	0.729	0.272	0.872	0.434	0.848	0.963	0.741	0.835	0.875
C[C@@H](Nc1cc(F)cc(F)c1)c1cc(C(=O)N(C)C)cc2c(=O)cc(N3CCOCC3)oc12 [AZD8186] + C1CN(CCC1(C(=O)N[C@@H](CCO)C2=CC=C(C=C2)Cl)N)C3=NC=NC4=C3C=CN4 [AZD5363] (first compound max 10 µM, 7x7, partner max 10 µM)	0.0627	-0.0404	-0.0246	-0.037	0.989	0.318	0.34	0.54	0.116	0.7	0.254	0.419	0.103	0.228	0.542	0.358	0.26	0.562	0.496	0.4
C[C@@H](Nc1cc(F)cc(F)c1)c1cc(C(=O)N(C)C)cc2c(=O)cc(N3CCOCC3)oc12 [AZD8186] + CC(=O)c1c(C)c2cnc(Nc3ccc(N4CCNCC4)cn3)nc2n(C2CCCC2)c1=O [Palbociclib] (first compound max 10 µM, 7x7, partner max 10 µM)	0.0805	-0.037	0.0897	-0.0358	0.655	0.281	0.365	0.505	0.0814	0.656	0.28	0.624	0.233	0.403	0.61	0.526	0.302	0.657	0.597	0.621
